The target in series [1] is PI3Kγ (Homo sapiens, UniProt P48736). As to the kind of experiment: PI3Kγ inhibitory activity (PI3-kinase HTRF assay, inhibition ratio). The format is biochemical. The conditions noted are these: compound at 10 μmol/L; for inhibition at 10 µM: 0.5 h, read-out: PI3Kg Inhibition Ratio % (10 μM). Here is the method:
For each compound synthesized in the above Examples, PI3Kγ inhibitory activity was measured.
The PI3Kγ inhibitory activity of a compound was evaluated using PI3-kinase HTRF™ assay (Millipore) according to the following procedure:
To each well of a testing plate, 5 μL of a compound solution containing 10% DMSO (40 μmol/L as the concentration of the compound), 5 μL of a substrate solution (40 μmol/L phosphatidylinositol (4,5)-bisphosphate, 20 mmol/L MgCl2, 10 mmol/L DTT), and 5 μL of an enzyme solution (80 μg/mL PI-3 kinase y, 10 mmol/L MgCl2, 5 mmol/L DTT) were added, and then allowed to stand for 10 minutes.
Then, 5 μL of a reaction solution (40 μmol/L ATP, 10 mmol/L MgCl2, 5 mmol/L DTT) was added thereto. After reacting for 30 minutes at room temperature, 5 μL of a solution containing EDTA and biotinylated phosphatidylinositol (3,4,5)-triphosphate was added to quench the reaction.
5 μL of a detection reagent containing a europium-labeled anti-GST antibody, the GST-tagged PH domain, and allophycocyanin-labeled streptavidin was added thereto. After 18 hours, HTRF (excitation wavelength: 330 nm, measured wavelengths: 620 nm and 665 nm) was measured.
HTRF ratio was defined as the value obtained by dividing the amount of fluorescence obtained at the measured wavelength 665 nm by the amount of fluorescence obtained at 620 nm. The HTRF ratio in the absence of a compound was defined as 100% activity and the HTRF ratio in the absence of PI-3 kinase y was defined as 0% activity to calculate an inhibition ratio, which was defined as the PI3Kγ inhibitory activity of a compound at 10 μmol/L.
Background: In TR-FRET formats the signal depends on donor and acceptor labels being close together.

A short description of series [2]: Metabolic stability test (pooled human liver microsome). Type of series: in vitro ADME. The following applies: percentage of test compound remained after 30 minutes, pooled human liver microsome 0.5 mg protein/mL, 1 mmol/L NADPH, 37° C.; for hLMS_ox(at 0.5 μM) %: compound 0.5 μM. As to the method: After a subject compound was reacted for a certain time using a pooled human liver microsome commercially available, a reacted sample and an unreacted sample are compared to calculate a survival ratio, and then the degree of metabolism in the liver was evaluated.
0.2 mL of a buffer solution (50 mmol/L of Tris-HCl in pH 7.4, 150 mmol/L of potassium chloride, and 10 mmol/L of magnesium chloride) containing a human liver microsome of 0.5 mg protein/mL was reacted in the presence of 1 mmol/L NADPH at 37° C. for 0 or 30 minutes (oxidative reaction). After reacting, 50 μL of the reaction solution was added to 100 μL of a solution of methanol/acetonitrile (1/1 (v/v)), mixed, and then centrifuged at 3000 rpm for 15 minutes. The test compound in the supernatant was quantitated with LC/MS/MS. The amount of the compound at a reaction time of 0 minute was defined as 100% and, based on that, the percentage of the test compound remained after reacting for 30 minutes was calculated.

Molecules are shown by their SMILES. A value given as a limit tells only on which side of the number the result lay.

PI3Kγ, sequence (P48736 whole entry, species assumed): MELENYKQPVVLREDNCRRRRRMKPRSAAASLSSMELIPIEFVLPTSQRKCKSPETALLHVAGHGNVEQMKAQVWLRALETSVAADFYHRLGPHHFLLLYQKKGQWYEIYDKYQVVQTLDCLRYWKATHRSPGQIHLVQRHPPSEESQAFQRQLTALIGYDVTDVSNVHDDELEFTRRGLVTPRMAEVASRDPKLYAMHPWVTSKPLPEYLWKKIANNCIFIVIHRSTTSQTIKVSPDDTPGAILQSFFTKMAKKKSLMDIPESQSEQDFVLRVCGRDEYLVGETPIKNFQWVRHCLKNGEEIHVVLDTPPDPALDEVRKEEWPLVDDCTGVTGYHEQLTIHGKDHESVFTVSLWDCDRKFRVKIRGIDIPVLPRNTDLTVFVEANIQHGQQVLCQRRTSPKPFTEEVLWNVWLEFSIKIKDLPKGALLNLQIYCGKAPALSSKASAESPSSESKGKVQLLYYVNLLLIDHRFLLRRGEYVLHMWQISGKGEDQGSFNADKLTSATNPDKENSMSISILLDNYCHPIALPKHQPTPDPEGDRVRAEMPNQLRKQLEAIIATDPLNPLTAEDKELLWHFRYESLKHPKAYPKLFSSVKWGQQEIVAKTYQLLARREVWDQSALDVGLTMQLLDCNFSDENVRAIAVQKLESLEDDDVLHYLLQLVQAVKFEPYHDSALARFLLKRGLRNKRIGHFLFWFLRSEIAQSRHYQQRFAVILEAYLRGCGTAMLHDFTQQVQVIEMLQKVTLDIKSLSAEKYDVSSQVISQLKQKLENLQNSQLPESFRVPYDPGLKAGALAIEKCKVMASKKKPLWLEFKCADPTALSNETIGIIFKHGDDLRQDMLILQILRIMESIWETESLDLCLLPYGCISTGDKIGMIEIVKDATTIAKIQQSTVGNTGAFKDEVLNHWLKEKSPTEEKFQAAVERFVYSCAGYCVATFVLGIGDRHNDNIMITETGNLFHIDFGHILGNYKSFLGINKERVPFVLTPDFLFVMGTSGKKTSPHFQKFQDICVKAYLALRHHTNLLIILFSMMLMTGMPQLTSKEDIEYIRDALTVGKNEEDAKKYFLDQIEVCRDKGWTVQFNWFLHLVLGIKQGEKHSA

As to `COC(=O)c1ccsc1NC(=O)Nc1nc2c(s1)CN(c1cc(OC)nc(OC)n1)CC2` [Compound I-1], the inhibition at 10 µM in series [1] was found to be 79%. For the compound `COC(=O)c1sccc1NC(=O)Nc1nc2c(s1)CN(c1cc(OC)nc(OC)n1)CC2` [Compound I-2], in series [1], the inhibition at 10 µM turned out to be 69%. As for `COc1cc(N2CCc3nc(NC(=O)Nc4ccccc4C(=O)OC(C)(C)C)sc3C2)nc(OC)n1` [Compound I-3], the inhibition at 10 µM in series [1] is no less than 95%. Moreover, the “hLMS_ox(at 2 μM) %” value in series [2] (compound 2 μM) is 82%. Take `COC(=O)c1ccccc1NC(=O)Nc1nc2c(s1)CN(c1cc(OC)nc(OC)n1)CC2` [Compound I-6]: the inhibition at 10 µM in series [1] is no less than 95%. Still for that read-out and setting: for `COc1cc(N2CCc3nc(NC(=O)Nc4ccccc4C(=O)N4CCCCC4)sc3C2)nc(OC)n1` [Compound I-8] the value was 93%.

For `COc1cc(N2CCc3nc(NC(=O)Nc4ccccc4C(=O)N(C)C(C)(C)C)sc3C2)nc(OC)n1` [Compound I-11], in series [1], the inhibition at 10 µM turned out to be 94%.

Take `COc1cc(N2CCc3nc(NC(=O)Nc4ccccc4C(=O)NC(C)(C)CO)sc3C2)nc(OC)n1` [Compound I-15]: in series [1], the inhibition at 10 µM was determined as 94%. Take `COC(=O)C(C)(C)NC(=O)c1ccccc1NC(=O)Nc1nc2c(s1)CN(c1cc(OC)nc(OC)n1)CC2` [Compound I-17]: the inhibition at 10 µM in series [1] is no less than 95%.

As to `COCC(C)NC(=O)c1ccccc1NC(=O)Nc1nc2c(s1)CN(c1cc(OC)nc(OC)n1)CC2` (stereo not drawn) [Compound I-18], the inhibition at 10 µM in series [1] came to 94%. Same read-out and setting: for `COC(=O)c1ccncc1NC(=O)Nc1nc2c(s1)CN(c1cc(OC)nc(OC)n1)CC2` [Compound I-21] the value was 74%.

Turning to `COc1cc(N2CCc3nc(NC(=O)Nc4ccccc4C(=O)NC(C)(C)C#N)sc3C2)nc(OC)n1` [Compound I-25], the inhibition at 10 µM in series [1] was no less than 95%. The same measure, in the same setting: for `COc1cc(N2CCc3nc(NC(=O)Nc4ccsc4C(=O)NC(C)(C)C)sc3C2)nc(OC)n1` [Compound I-26] the value was no less than 95%; for `COc1cc(N2CCc3nc(NC(=O)Nc4ccc(F)cc4C(=O)NC(C)C)sc3C2)nc(OC)n1` [Compound I-32], no less than 95%.

On to `COc1cc(N2CCc3nc(NC(=O)Nc4ccccc4NC(=O)C(C)(C)C)sc3C2)nc(OC)n1` [Compound I-44], for which the inhibition at 10 µM in series [1] was no less than 95%. Consider `COc1cc(N2CCc3nc(NC(=O)Nc4ccccc4OCC(C)C)sc3C2)nc(OC)n1` [Compound I-47], for which the inhibition at 10 µM in series [1] was no less than 95%. For the compound `COc1cc(N2CCc3nc(NC(=O)Nc4ccccc4C(=O)CCC(C)C)sc3C2)nc(OC)n1` [Compound I-66], the inhibition at 10 µM in series [1] is no less than 95%.

On to `COc1cc(N2CCc3nc(NC(=O)Nc4ccccc4CC(C)C)sc3C2)nc(OC)n1` [Compound I-68], for which, in series [1], the inhibition at 10 µM was no less than 95%. Regarding `COc1cc(N2CCc3nc(NC(=O)Nc4ccccc4C(=O)NCCO)sc3C2)nc(OC)n1` [Compound I-85], in series [1], the inhibition at 10 µM is no less than 95%. In series [2], the “hLMS_ox(at 0.5 μM) %” value is reported as 90.2%.

In the case of `COc1cc(N2CCc3nc(NC(=O)Nc4ccccc4C(=O)NC(C)CO)sc3C2)nc(OC)n1` (stereo not drawn) [Compound I-87], in series [1], the inhibition at 10 µM is no less than 95%. In series [2], the “hLMS_ox(at 0.5 μM) %” value is 91.9%. On to `COc1nccc(N2CCc3nc(NC(=O)Nc4ccccc4OCCC(C)C)sc3C2)n1` [Compound I-96], for which, in series [1], the inhibition at 10 µM is no less than 95%.

In the case of `O=C(Nc1nc2c(s1)CN(c1ccnc(Cl)n1)CC2)Nc1ccccc1C(=O)NCCO` [Compound I-99], the inhibition at 10 µM in series [1] was no less than 95%. In series [2], the “hLMS_ox(at 0.5 μM) %” value turned out to be 90.6%. Turning to `COc1cc(N2CCc3nc(NC(=O)Nc4ccccc4C(O)CC(C)C)sc3C2)nc(OC)n1` (stereo not drawn) [Compound I-116], the inhibition at 10 µM in series [1] was no less than 95%. As for `CC(CO)NC(=O)c1ccccc1NC(=O)Nc1nc2c(s1)CN(c1ccc(F)c(F)c1)CC2` (stereo not drawn) [Compound I-118], the inhibition at 10 µM in series [1] was no less than 95%. In series [2], the “hLMS_ox(at 0.5 μM) %” value amounted to 89.8%. The corresponding values for `CC(CO)NC(=O)c1ccccc1NC(=O)Nc1nc2c(s1)CN(c1cc(F)cc(F)c1)CC2` (stereo not drawn) [Compound I-119] are no less than 95% and 90.8%.

For the compound `CC(CO)NC(=O)c1ccccc1NC(=O)Nc1nc2c(s1)CN(c1ccnc(F)c1)CC2` (stereo not drawn) [Compound I-122], the inhibition at 10 µM in series [1] is no less than 95%. The “hLMS_ox(at 0.5 μM) %” value in series [2] was 90.6%. On to `COc1cc(N2CCc3nc(NC(=O)N[C@@H]4C[C@H]4C(=O)NC(C)C)sc3C2)nc(OC)n1` [Compound I-130], for which, in series [2], the “hLMS_ox(at 0.5 μM) %” value came out at 104%. In the case of `CC(C)NC(=O)c1nn(C)cc1NC(=O)Nc1nc2c(s1)CN(c1cncc(C(F)(F)F)c1)CC2` [Compound I-132], in series [1], the inhibition at 10 µM stood at 85%.

As for `Cc1cc(N2CCc3nc(NC(=O)Nc4cn(C)nc4C(=O)NC(C)C)sc3C2)nc(Cl)n1` [Compound I-164], the inhibition at 10 µM in series [1] stood at 93%. On to `COc1cc(N2CCc3nc(NC(=O)Nc4ccccc4S(=O)(=O)NC(C)C)sc3C2)nc(OC)n1` [Compound I-171], for which, in series [1], the inhibition at 10 µM came to 85%. `COc1cc(N2CCc3nc(NC(=O)Nc4ccccc4O)sc3C2)nc(OC)n1` [Compound I-177]: the inhibition at 10 µM in series [1] is 88%. For the compound `Cc1cc(N2CCc3nc(NC(=O)Nc4ccccc4C(=O)NC(C)C)sc3C2)nc(C#N)n1` [Compound I-181], in series [1], the inhibition at 10 µM worked out at 79%. Also, the “hLMS_ox(at 0.5 μM) %” value in series [2] amounted to 85.9%.

In the case of `CC(C)NC(=O)c1nn(C)cc1NC(=O)Nc1nc2c(s1)CN(c1cc[nH]c(=O)c1)CC2` [Compound I-184], in series [1], the inhibition at 10 µM stood at 75%. In addition, in series [2], the “hLMS_ox(at 0.5 μM) %” value is reported as 98.1%.

As to `COc1cc(N2CCc3nc(NC(=O)Nc4ccccc4C(=O)NN(C)C)sc3C2)nc(OC)n1` [Compound I-194], the “PI3Kg Inhibition Ratio % (10 μM)” value in series [1] is recorded as 92%. In the case of `CO/N=C(\C)c1ccccc1NC(=O)Nc1nc2c(s1)CN(c1cc(OC)nc(OC)n1)CC2` [Compound I-196], the inhibition at 10 µM in series [1] was found to be 83%. Take `COc1cc(N2CCc3nc(NC(=O)Nc4cccc5c4C(=O)N(C(C)C)C5)sc3C2)nc(OC)n1` [Compound I-201]: the inhibition at 10 µM in series [1] was 78%. Same read-out and setting: the value for `C[C@@H](CO)NC(=O)c1ccccc1NC(=O)Nc1nc2c(s1)CN(c1ccc(C(F)(F)F)cc1)CC2` [Compound I-206] was 87%.

On to `C[C@H](CO)NC(=O)c1ccccc1NC(=O)Nc1nc2c(s1)CN(c1ccc(C(F)(F)F)cc1)CC2` [Compound I-207], for which the inhibition at 10 µM in series [1] worked out at 93%. Further, the “hLMS_ox(at 0.5 μM) %” value in series [2] was found to be 93.5%.

Take `CC(=O)c1cccc(-c2ccc3nc(NC(=O)Nc4ccccc4OCCC(C)C)sc3c2)c1` [Compound I-214]: the inhibition at 10 µM in series [1] is no less than 95%. In the case of `COc1ccc(-c2ccc3nc(NC(=O)Nc4ccccc4OCCC(C)C)sc3c2)cn1` [Compound I-215], in series [1], the inhibition at 10 µM was no less than 95%. Still for that read-out and setting: for `CC(=O)c1cccc(-c2ccc3nc(NC(=O)Nc4ccccc4OCCC(C)C)nn3c2)c1` [Compound I-217] the value was 88%. On to `COc1ccc(-c2ccc3nc(NC(=O)Nc4ccccc4OCCC(C)C)nn3c2)cn1` [Compound I-218], for which the inhibition at 10 µM in series [1] amounted to 90%. For the compound `COc1ccc(-c2ccc3nc(NC(=O)Nc4ccccc4OCCC(C)C)sc3n2)cn1` [Compound I-220], in series [1], the inhibition at 10 µM is no less than 95%. The same measure, in the same setting: for `CC(=O)c1cccc(-c2cc(NC(=O)Nc3ccccc3OCCC(C)C)nn2C)c1` [Compound I-222] the value was no less than 95%.

With `COc1ccc(-c2cc(NC(=O)Nc3ccccc3C(=O)NC(C)C)nn2C)cn1` [Compound I-228], the inhibition at 10 µM in series [1] was determined as 88%.

Values taken from patent publication US20120071475A1, “UREA DERIVATIVES HAVING PI3K-INHIBITING ACTIVITY” (SHIONOGI & CO., LTD., priority 2009, published 2012).
